Active and inactive are the calls of the source. The calls are words filed in the database; no cut-off is given here.
Experiments:
[1] = target: Histone deacetylase 1 (Homo sapiens) (UniProt Q13547); assay: Inhibition of human FLAG-tagged HDAC1 expressed in human 293T cells up to 50 uM using Ac-KGLGK(Ac)-MCA as substrate after 30 mins by fluorescence assay
[2] = tested on: P388; assay: Cytotoxicity against mouse P388 cells assessed as reduction in cell viability at >= 20 nM after 96 hrs by MTT assay; type: functional, cell-based
[3] = target: T1, Protein deacetylase HDAC6 (Mus musculus) (UniProt Q9Z2V5); assay: Inhibition of mouse FLAG-tagged HDAC6 expressed in human 293T cells coexpressing HDA2 up to 50 uM using Ac-KGLGK(Ac)-MCA as substrate after 30 mins by fluorescence assay; type: cell-based
T1 sequence (whole entry): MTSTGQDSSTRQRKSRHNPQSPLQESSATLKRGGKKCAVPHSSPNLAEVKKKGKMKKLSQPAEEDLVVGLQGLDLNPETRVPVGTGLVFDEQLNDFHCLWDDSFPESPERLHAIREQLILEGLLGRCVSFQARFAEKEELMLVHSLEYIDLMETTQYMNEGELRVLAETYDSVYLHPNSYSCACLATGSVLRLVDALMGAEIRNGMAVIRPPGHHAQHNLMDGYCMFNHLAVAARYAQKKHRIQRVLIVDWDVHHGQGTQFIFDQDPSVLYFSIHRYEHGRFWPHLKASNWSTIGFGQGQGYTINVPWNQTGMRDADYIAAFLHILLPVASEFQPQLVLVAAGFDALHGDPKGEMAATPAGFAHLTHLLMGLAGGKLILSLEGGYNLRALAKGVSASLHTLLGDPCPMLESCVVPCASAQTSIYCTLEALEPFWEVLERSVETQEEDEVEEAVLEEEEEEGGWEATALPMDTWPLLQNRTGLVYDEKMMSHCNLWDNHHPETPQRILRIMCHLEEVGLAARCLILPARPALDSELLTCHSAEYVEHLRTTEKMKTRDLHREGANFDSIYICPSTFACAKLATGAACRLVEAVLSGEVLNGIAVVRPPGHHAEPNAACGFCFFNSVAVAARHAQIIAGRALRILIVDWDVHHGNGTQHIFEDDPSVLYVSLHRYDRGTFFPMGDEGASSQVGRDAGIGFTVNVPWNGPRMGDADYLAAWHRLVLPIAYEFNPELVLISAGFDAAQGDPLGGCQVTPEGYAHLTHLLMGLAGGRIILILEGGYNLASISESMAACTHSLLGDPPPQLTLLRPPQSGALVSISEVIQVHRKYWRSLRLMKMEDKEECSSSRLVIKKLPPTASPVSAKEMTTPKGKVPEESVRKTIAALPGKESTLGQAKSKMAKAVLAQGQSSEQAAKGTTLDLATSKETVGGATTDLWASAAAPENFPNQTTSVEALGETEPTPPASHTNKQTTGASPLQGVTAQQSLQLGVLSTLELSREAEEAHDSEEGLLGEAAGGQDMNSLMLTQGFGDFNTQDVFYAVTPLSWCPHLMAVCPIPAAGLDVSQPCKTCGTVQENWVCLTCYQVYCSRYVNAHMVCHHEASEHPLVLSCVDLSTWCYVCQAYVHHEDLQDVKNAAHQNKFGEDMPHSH

[4] = target: T2, NAD-dependent protein deacetylase sirtuin-1 (Homo sapiens) (UniProt Q96EB6); assay: Inhibition of human SIRT1 expressed in Escherichia coli BL21(DE3) up to 50 uM using Ac-RHKK(Ac)-MCA as substrate after 60 mins in presence of NAD by fluorescence assay
T2 sequence (whole entry): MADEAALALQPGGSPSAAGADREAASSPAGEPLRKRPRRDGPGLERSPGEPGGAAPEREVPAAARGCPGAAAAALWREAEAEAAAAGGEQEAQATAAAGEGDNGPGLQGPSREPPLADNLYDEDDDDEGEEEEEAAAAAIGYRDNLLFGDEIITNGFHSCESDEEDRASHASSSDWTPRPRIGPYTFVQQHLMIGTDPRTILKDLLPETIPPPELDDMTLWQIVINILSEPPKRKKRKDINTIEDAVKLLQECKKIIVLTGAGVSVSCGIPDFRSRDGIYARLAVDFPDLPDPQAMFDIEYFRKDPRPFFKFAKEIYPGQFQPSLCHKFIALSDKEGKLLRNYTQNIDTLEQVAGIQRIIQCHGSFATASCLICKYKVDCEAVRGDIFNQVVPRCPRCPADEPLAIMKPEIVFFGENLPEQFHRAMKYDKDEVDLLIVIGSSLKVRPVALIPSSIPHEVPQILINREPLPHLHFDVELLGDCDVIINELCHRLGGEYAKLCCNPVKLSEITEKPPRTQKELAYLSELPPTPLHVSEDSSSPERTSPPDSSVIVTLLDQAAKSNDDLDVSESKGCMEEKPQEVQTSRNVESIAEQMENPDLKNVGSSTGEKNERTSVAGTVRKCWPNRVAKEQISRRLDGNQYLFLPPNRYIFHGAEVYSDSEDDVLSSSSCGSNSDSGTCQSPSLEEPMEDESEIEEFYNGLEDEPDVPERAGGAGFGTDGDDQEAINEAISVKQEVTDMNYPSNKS

Chain of Histone deacetylase 1 (Homo sapiens) (Q13547 whole entry): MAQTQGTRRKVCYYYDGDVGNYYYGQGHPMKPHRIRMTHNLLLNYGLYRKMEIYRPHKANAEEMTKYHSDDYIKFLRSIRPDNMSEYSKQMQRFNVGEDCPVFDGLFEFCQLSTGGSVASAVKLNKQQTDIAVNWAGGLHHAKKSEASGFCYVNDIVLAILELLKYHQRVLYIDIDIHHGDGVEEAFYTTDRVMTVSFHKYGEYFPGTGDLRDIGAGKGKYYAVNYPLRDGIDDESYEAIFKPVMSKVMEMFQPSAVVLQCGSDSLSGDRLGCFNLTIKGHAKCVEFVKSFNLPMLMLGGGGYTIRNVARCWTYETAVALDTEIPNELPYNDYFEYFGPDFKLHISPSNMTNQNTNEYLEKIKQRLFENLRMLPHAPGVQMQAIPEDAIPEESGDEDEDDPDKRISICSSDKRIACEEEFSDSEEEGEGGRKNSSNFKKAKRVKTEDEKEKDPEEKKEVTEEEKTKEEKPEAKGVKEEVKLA

CCC(=O)CC(CC/C=C/C=C/CC/C=C\[C@@H]1CSC([C@@H]2C[C@@H]2C)=N1)OC (some centres undefined) was tested, and the inhibition [1] was “inactive”, the Activity [2] was “Active” and the inhibition [3] was “inactive”. For the same molecule, the inhibition [4] was “inactive”.
